Source: paper PMC7575509, “Phase I study of DFP-11207, a novel oral fluoropyrimidine with reasonable AUC and low Cmax and improved tolerability, in patients with solid tumors” (Investigational New Drugs, 2020)
“Also recorded” adds a separate entry of the source.

Legend:
[1] = Urine pharmacokinetics, Phase I Study; assay type: in vivo, human (patients); settings: Cycle 1, 0–48 hours after the DFP-11207 dose of 330 mg/m^2/day
[2] = Plasma pharmacokinetics, Food Effect Study (fed vs fasted); settings: for detectability in plasma during fed and fasted dosing: 6 patients
[3] = Plasma pharmacokinetics, Phase I Study (LC-MS/MS of DFP-11207 metabolites); settings: for AUC(0-t) / Cmax / Tmax / concentration at 2 day (Cycle 1): human, po
[4] = ref 18 (capecitabine), 19 (UFT), 20 (S-1); cited from earlier work

SMILES | urinary excretion [1] [%] | 5-FU Cmax at steady state ([3]; DFP-11207 330 mg/m^2/day orally every 12 hours) [ng/mL] | AUC(0-t) ([3]; plasma, 330 mg/m2) [ng·h/mL] | Cmax ([3]; plasma, 330 mg/m2) [ng/mL] | Tmax ([3]; plasma, 330 mg/m2) [h] | concentration at 2 day (Cycle 1) ([3]; plasma, 330 mg/m^2/day) [ng/mL] | Cmax ([3]; plasma, 440 mg/m2) [ng/mL] | Tmax ([3]; plasma, 440 mg/m2) [h] | concentration at 2 day (Cycle 1) ([3]; plasma, 440 mg/m^2/day) [ng/mL] | blood concentrations maintained throughout the dose cycle ([3]; oral DFP-11207 at 330 and 440 mg/m^2/day) | AUClast, Mean (SD) ([3]; plasma, Day 1, oral DFP-11207 440 mg/m^2) | detectability in plasma during fed and fasted dosing ([2]; DFP-11207 300 mg twice daily) | AUC(0-t) ([3]; plasma, 440 mg/m2) [ng·h/mL] | difference in plasma levels (Cmax or AUClast) between fasted and fed conditions ([2]; DFP-11207 300 mg twice daily, patients serving as their own controls) | difference in plasma levels (Cmax or AUClast) between fasted and fed conditions ([2]; in vivo) | primary dose-limiting toxicity [4]
Oc1cc(O)c(Cl)cn1 [CDHP, 5-chloro-2,4-dihydroxypyridine] | 1.98 |  | 2410 | 90.4 | 24 |  | 93.6 | 26 |  |  |  | detectable in plasma at all time points | 2810 |  |  | 
CCCCCOC(=O)Nc1nc(=O)n([C@@H]2O[C@H](C)[C@@H](O)[C@H]2O)cc1F [capecitabine] |  |  |  |  |  |  |  |  |  |  |  |  |  |  |  | hand-foot syndrome
O=C(O)c1cc(O)nc(O)c1 [CTA, citrazinic acid] | 0.07 |  | 254 | 9.81 | 8 |  | 9.72 | 4 |  |  |  |  | 388 | no clear differences |  | 

Further lines, with some results ahead:

urinary excretion [1] [%] | 5-FU Cmax at steady state ([3]; DFP-11207 330 mg/m^2/day orally every 12 hours) [ng/mL] | AUC(0-t) ([3]; plasma, 330 mg/m2) [ng·h/mL] | Cmax ([3]; plasma, 330 mg/m2) [ng/mL] | Tmax ([3]; plasma, 330 mg/m2) [h] | concentration at 2 day (Cycle 1) ([3]; plasma, 330 mg/m^2/day) [ng/mL] | Cmax ([3]; plasma, 440 mg/m2) [ng/mL] | Tmax ([3]; plasma, 440 mg/m2) [h] | concentration at 2 day (Cycle 1) ([3]; plasma, 440 mg/m^2/day) [ng/mL] | blood concentrations maintained throughout the dose cycle ([3]; oral DFP-11207 at 330 and 440 mg/m^2/day) | AUClast, Mean (SD) ([3]; plasma, Day 1, oral DFP-11207 440 mg/m^2) | detectability in plasma during fed and fasted dosing ([2]; DFP-11207 300 mg twice daily) | AUC(0-t) ([3]; plasma, 440 mg/m2) [ng·h/mL] | difference in plasma levels (Cmax or AUClast) between fasted and fed conditions ([2]; DFP-11207 300 mg twice daily, patients serving as their own controls) | SMILES | difference in plasma levels (Cmax or AUClast) between fasted and fed conditions ([2]; in vivo) | primary dose-limiting toxicity [4]
0.12 | < 25 | 220 | 9.65 | 24 | 4.01 to 25.5 | 8.75 | 12 | 3.39 to 13 | approximately 20 ng/mL | 3; 311 (214) ng·h/mL |  |  |  | O=c1[nH]cc(F)c(=O)[nH]1 [5-FU, 5-fluorouracil, reference compound] | no influence; also recorded: no clear differences | 
0.71 |  | 39900 | 1310 | 48 | 559 to 1380 | 1400 | 24 | 948 to 1770 |  |  | detectable in plasma at all time points | 49400 |  | CCOCn1cc(F)c(=O)[nH]c1=O [EM-FU, 1-ethoxymethyl-5-fluorouracil] |  | 
